Assay results published in patent US9981918B2, “Kynurenine-3-monooxygenase inhibitors, pharmaceutical compositions, and methods of use thereof” (CHDI Foundation, Inc., priority 2011, dated 2018).

System: KMO
Assay: KMO inhibition: L-Kynurenine hydroxylation to 3-Hydroxy-Kynurenine monitored by LC/MS
Type: biochemical
Conditions: compound at 10 uM; footnote: some portion of activity of amides may be due to contribution of acid precursor
Method: A generalized procedure for monitoring L-Kynurenine (KYN) hydroxylation to form product 3-Hydroxy-Kynurenine (30H-KYN) by LC/MS is described below. Product is quantified by multiple reaction monitoring using MS.
A method of monitoring L-Kynurenine (KYN) hydroxylation to form product 3-Hydroxy-Kynurenine (30H-KYN) by LC/MS is described below. Product is quantified by multiple reaction monitoring.
• Compound: Stock concentrations: 10 mM in 100% DMSO • Enzyme: KMO enzyme prepared at Evotec via mitochondria isolation from CHO-GST HIS KMO cells • Substrate: L-Kynurenine (Sigma: Cat# K3750) • [stock concentration: 10 mM in 100 mM potassium phosphate buffer, pH 7.4]
A method of monitoring L-Kynurenine (KYN) hydroxylation to form 3-Hydroxy-Kynurenine (30H-KYN) by LC/MS is described. Product is quantified by multiple reaction monitoring (MRM method).

| Structure (SMILES) | % Inhibition at 10 uM* [%] |
| --- | --- |
| CS(=O)(=O)c1ccc(-c2cc(C(=O)O)ncn2)cc1Cl [6-[3-chloro-4-(methylsulfonyl)phenyl]pyrimidine-4-carboxylic acid] | 100 |
| O=C(Nc1cccnc1)c1cc(-c2ccc(Cl)c(OC3CCOC3)c2)ncn1 (centres unmarked) [6-[4-Chloro-3-(tetrahydro-furan-3-yloxy)-phenyl]-pyrimidine-4-carboxylic acid pyridin-3-ylamide] | 88.39 |
| CN(C)Cc1ccc(-c2cc(C(=O)O)ncn2)cc1Cl [6-{3-chloro-4-[(dimethylamino)methyl]phenyl}pyrimidine-4-carboxylic acid] | 65 |
| O=C(O)c1cc(-c2ccc(C(O)C3CC3)c(Cl)c2)ncn1 (centres unmarked) [6-{3-chloro-4-[cyclopropyl(hydroxy)methyl]phenyl}pyrimidine-4-carboxylic acid] | 90 |
| CN(c1ccc(-c2cc(C(=O)O)ncn2)cc1Cl)C1CC1 [6-{3-chloro-4-[cyclopropyl(methyl)amino]phenyl}pyrimidine-4-carboxylic acid] | 96 |
| O=S(=O)(Nc1cc(-c2ccc(OC3CC3)c(Cl)c2)ncn1)c1ccccc1F [N-[6-(3-chloro-4-cyclopropoxyphenyl)pyrimidin-4-yl]-2-fluorobenzene-1-sulfonamide] | 96 |
| O=S(=O)(Nc1cc(-c2ccc(OC3CC3)c(Cl)c2)ncn1)c1ccc(OC(F)(F)F)cc1 [N-[6-(3-chloro-4-cyclopropoxyphenyl)pyrimidin-4-yl]-4-(trifluoromethoxy)benzene-1-sulfonamide] | 88 |
| O=S(=O)(Nc1cc(-c2ccc(OC3CC3)c(Cl)c2)ncn1)c1ccc(F)cc1 [N-[6-(3-chloro-4-cyclopropoxyphenyl)pyrimidin-4-yl]-4-fluorobenzene-1-sulfonamide] | 98 |
| O=S(=O)(Nc1cc(-c2ccc(OC3CC3)c(Cl)c2)ncn1)c1ccccc1 [N-[6-(3-chloro-4-cyclopropoxyphenyl)pyrimidin-4-yl]benzenesulfonamide] | 73 |
| O=S(=O)(Nc1cc(-c2ccc(OC3CC3)c(Cl)c2)ncn1)C1CC1 [N-[6-(3-chloro-4-cyclopropoxyphenyl)pyrimidin-4-yl]cyclopropanesulfonamide] | 33 |
| O=C(OC[C@H]1OC(O)[C@H](O)[C@@H](O)[C@@H]1O)c1cc(-c2ccc(OC3CC3)c(Cl)c2)ncn1 (stereo partly drawn) [[(2R,3S,4S,5R)-3,4,5,6-tetrahydroxyoxan-2-yl]methyl 6-(3-chloro-4-cyclopropoxyphenyl)pyrimidine-4-carboxylate] | 102 |
